Source: patent US9656971B2, “COMT inhibitors” (Hoffmann-La Roche Inc., priority 2012, dated 2017)

The compounds below were run against T1, Rec. human COMT (Homo sapiens, UniProt P21964) (assay: COMT-Fluorescence Assay). Conditions: COMT-fluorescence assay, rec. human COMT 25 nM, 4-Nitrocatechol-Alexa488 200 nM, SAM 500 nM; read-out: IC50.
T1 sequence (P21964 1-271): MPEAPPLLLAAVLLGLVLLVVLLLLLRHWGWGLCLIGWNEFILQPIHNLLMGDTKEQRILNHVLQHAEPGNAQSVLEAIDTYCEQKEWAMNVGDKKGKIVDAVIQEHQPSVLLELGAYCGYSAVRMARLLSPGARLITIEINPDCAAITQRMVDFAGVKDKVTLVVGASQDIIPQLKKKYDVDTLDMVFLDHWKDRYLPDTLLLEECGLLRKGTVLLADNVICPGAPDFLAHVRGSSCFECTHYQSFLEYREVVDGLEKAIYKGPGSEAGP
Assay type: biochemical
Description: This intramolecular interaction is disturbed if the 4-Nitrocatechol is methylated. […] This increase of fluorescence intensity can be followed in a kinetic measurement. The slope in the linear range of the kinetic is calculated. An inhibitor compound decreases the slope.
Signal [rfu/min]=(rfu(end-point)−rfu(startpoint))/incubation_time_#2

IC50 [nM]	SMILES
54	CN(C)Cc1cccc(-c2cc(O)c3nc[nH]c(=O)c3c2)c1 [Example 229, 6-(3-Dimethylaminomethyl-phenyl)-8-hydroxy-3H-quinazolin-4-one]
30	COc1ncccc1-c1cc(O)c2nc[nH]c(=O)c2c1 [Example 162, 8-Hydroxy-6-(2-methoxypyridin-3-yl)quinazolin-4(3H)-one]
130	CN(C)CCCc1ccccc1-c1cc(O)c2nc[nH]c(=O)c2c1 [Example 243, 6-(2-(3-(Dimethylamino)propyl)phenyl)-8-hydroxyquinazolin-4(3H)-one]
20	Cc1cnccc1-c1cc(O)c2nc[nH]c(=O)c2c1 [Example 219, 8-Hydroxy-6-(3-methylpyridin-4-yl)quinazolin-4(3H)-one]
20	O=c1[nH]cnc2c(O)cc(-c3ccccc3)cc12 [Example 128, 8-Hydroxy-6-phenylquinazolin-4(3H)-one]
30	O=c1[nH]cnc2c(O)cc(C3=CCCCC3)cc12 [Example 186, 6-Cyclohexenyl-8-hydroxyquinazolin-4(3H)-one]
10	O=C(c1ccc(-c2cc(O)c3nc[nH]c(=O)c3c2)cc1)N1CCC(F)(F)CC1 [Example 200, 6-[4-(4,4-Difluoro-piperidine-1-carbonyl)-phenyl]-8-hydroxy-3H-quinazolin-4-one]
810	O=c1[nH]cnc2c(O)ccc(Cl)c12 [Example 143, 5-Chloro-8-hydroxyquinazolin-4(3H)-one]
3230	CCCS(=O)(=O)c1ccccc1-c1cc(O)c2nc[nH]c(=O)c2c1 [Example 249, 8-Hydroxy-6-(2-(propylsulfonyl)phenyl)quinazolin-4(3H)-one]
80	COc1ncc(-c2cc(O)c3nc[nH]c(=O)c3c2)c(OC)n1 [Example 160, 6-(2,4-Dimethoxypyrimidin-5-yl)-8-hydroxyquinazolin-4(3H)-one]
220	O=c1[nH]cnc2c(O)cc(-c3ccccc3CCCN3CCCC3)cc12 [Example 242, 8-Hydroxy-6-(2-(3-(pyrrolidin-1-yl)propyl)phenyl)quinazolin-4(3H)-one]
710	O=c1[nH]cnc2c(O)cc(N3CCOCC3)cc12 [Example 187, 8-Hydroxy-6-morpholinoquinazolin-4(3H)-one]
20	O=c1[nH]cnc2c(O)cc(-c3ccc4c(c3)OCCO4)cc12 [Example 176, 6-(2,3-Dihydrobenzo[b][1,4]dioxin-6-yl)-8-hydroxyquinazolin-4(3H)-one]
30	O=c1[nH]cnc2c(O)cc(-c3ccccc3C(F)(F)F)cc12 [Example 221, 8-Hydroxy-6-(2-(trifluoromethyl)phenyl)quinazolin-4(3H)-one]
30	O=c1[nH]cnc2c(O)cc(-c3ccccc3COCCN3CCCC3)cc12 [Example 238, 8-Hydroxy-6-(2-((2-(pyrrolidin-1-yl)ethoxy)methyl)phenyl)quinazolin-4(3H)-one]

The remaining lines, values behind:

SMILES	IC50 [nM]
O=c1[nH]cnc2c(O)c(Br)c(-c3ccc(F)cc3)c(Br)c12 [Example 34, 5,7-Dibromo-6-(4-fluorophenyl)-8-hydroxyquinazolin-4(3H)-one]	170
COc1ccc(C(C)(C)C)cc1-c1cc(O)c2nc[nH]c(=O)c2c1 [Example 35, 6-(5-tert-Butyl-2-methoxyphenyl)-8-hydroxyquinazolin-4(3H)-one]	1300
O=c1[nH]cnc2c(O)cc(Br)c([N+](=O)[O-])c12 [Example 44, 6-Bromo-8-hydroxy-5-nitro-3H-quinazolin-4-one]	110
O=c1[nH]cnc2c(O)cc(-c3ccc(F)cc3)c(-c3ccc(F)cc3)c12 [Example 102, 5,6-Bis(4-fluorophenyl)-8-hydroxyquinazolin-4(3H)-one]	1
Cc1cnc(-c2cc(O)c3nc[nH]c(=O)c3c2)s1 [Example 72, 8-Hydroxy-6-(5-methylthiazol-2-yl)quinazolin-4(3H)-one]	30
O=c1[nH]cnc2c(O)cc(C3CCCC3)cc12 [Example 18, 6-Cyclopentyl-8-hydroxyquinazolin-4(3H)-one]	900
O=c1[nH]cnc2c(O)cc(-c3ccccc3COCCC3CCN(CC(F)(F)F)CC3)cc12 [Example 118, 8-Hydroxy-6-(2-((2-(1-(2,2,2-trifluoroethyl)piperidin-4-yl)ethoxy)methyl)phenyl)quinazolin-4(3H)-one 2,2,2-trifluoroacetate]	10
CCCCOc1ccccc1-c1cc(O)c2nc[nH]c(=O)c2c1 [Example 228, 6-(2-Butoxyphenyl)-8-hydroxyquinazolin-4(3H)-one]	50
CS(=O)(=O)c1cccc(-c2c(-c3ccc(F)cc3)cc(O)c3nc[nH]c(=O)c23)c1 [Example 52, 6-(4-Fluorophenyl)-8-hydroxy-5-(3-(methylsulfonyl)phenyl)quinazolin-4(3H)-one]	10
Cn1ccnc1-c1cc(O)c2nc[nH]c(=O)c2c1 [Example 73, 8-Hydroxy-6-(1-methyl-1H-imidazol-2-yl)quinazolin-4(3H)-one]	40
COC(=O)c1cc(O)c2nc[nH]c(=O)c2c1 [Example 2, Methyl 8-hydroxy-4-oxo-3,4-dihydroquinazoline-6-carboxylate]	30
O=c1[nH]cnc2c(O)cc(Cc3ccccc3F)cc12 [Example 11, 6-(2-Fluorobenzyl)-8-hydroxyquinazolin-4(3H)-one]	1250
CN1CCN(S(=O)(=O)c2cccc(-c3cc(O)c4nc[nH]c(=O)c4c3)c2)CC1 [Example 111, 8-Hydroxy-6-[3-(4-methyl-piperazine-1-sulfonyl)-phenyl]-3#H!-quinazolin-4-one; compound with trifluoro-acetic acid]	20
O=c1[nH]cnc2c(O)cc(Br)c(C(F)(F)F)c12 [Example 41, 6-Bromo-8-hydroxy-5-(trifluoromethyl)quinazolin-4(3H)-one]	160
Cc1ccc(C)c2c1C=C(c1cc(O)c3nc[nH]c(=O)c3c1)CC2 [Example 19, 6-(5,8-dimethyl-3,4-dihydro-naphthalen-2-yl)-8-hydroxy-3H-quinazolin-4-one]	80
O=C(c1ccccc1)c1cc(O)c2nc[nH]c(=O)c2c1 [Example 68, 6-Benzoyl-8-hydroxy-3H-quinazolin-4-one]	60
O=c1[nH]cnc2c(O)cc(-c3ccc(F)cc3)c(Br)c12 [Example 122, 5-Bromo-6-(4-fluorophenyl)-8-hydroxyquinazolin-4(3H)-one]	10

Same assay, conditions: IC50, COMT-fluorescence assay, rec. human COMT 25 nM, 4-Nitrocatechol-Alexa488 200 nM, SAM 500 nM

IC50 [nM]	SMILES
1380	CN(C)Cc1ccccc1-c1cc(O)c2nc[nH]c(=O)c2c1 [Example 155, 6-(2-((Dimethylamino)methyl)phenyl)-8-hydroxyquinazolin-4(3H)-one]
30	CS(=O)(=O)c1ccc(-c2cc(O)c3nc[nH]c(=O)c3c2)c(F)c1 [Example 158, 6-(2-Fluoro-4-(methylsulfonyl)phenyl)-8-hydroxyquinazolin-4(3H)-one]

Second part, the compound before the results:

SMILES	IC50 [nM]
O=c1[nH]cnc2c(O)cc(-c3cc(Cl)ccc3Cl)cc12 [Example 37, 6-(2,5-Dichlorophenyl)-8-hydroxyquinazolin-4(3H)-one]	30
CN1CC=C(c2c(-c3ccc(F)cc3)cc(O)c3nc[nH]c(=O)c23)CC1 [Example 61, 6-(4-Fluorophenyl)-8-hydroxy-5-(1-methyl-1,2,3,6-tetrahydropyridin-4-yl)quinazolin-4(3H)-one]	130
